Assay results reported in patent publication US8044079B2, “Substituted oxindole derivatives, medicaments containing said derivatives and use thereof” (Abbott GmbH & Co. KG, priority 2005, dated 2011).

These compounds were tested against T1, human vasopressin V1b receptor (Homo sapiens, UniProt P47901) (assay: Vasopressin V1b receptor binding test). Conditions: membranes of CHO-K1 cells with human V1b receptor, displacement of 1.5 nM 3H-AVP; for compounds with more than one stereogenic center the diastereomer with greater affinity.
T1 construct: expressed in transfected cells; host or cells: CHO-K1 (cell line hV1b_3H2_CHO), membrane preparation
T1 sequence (P47901 1-424): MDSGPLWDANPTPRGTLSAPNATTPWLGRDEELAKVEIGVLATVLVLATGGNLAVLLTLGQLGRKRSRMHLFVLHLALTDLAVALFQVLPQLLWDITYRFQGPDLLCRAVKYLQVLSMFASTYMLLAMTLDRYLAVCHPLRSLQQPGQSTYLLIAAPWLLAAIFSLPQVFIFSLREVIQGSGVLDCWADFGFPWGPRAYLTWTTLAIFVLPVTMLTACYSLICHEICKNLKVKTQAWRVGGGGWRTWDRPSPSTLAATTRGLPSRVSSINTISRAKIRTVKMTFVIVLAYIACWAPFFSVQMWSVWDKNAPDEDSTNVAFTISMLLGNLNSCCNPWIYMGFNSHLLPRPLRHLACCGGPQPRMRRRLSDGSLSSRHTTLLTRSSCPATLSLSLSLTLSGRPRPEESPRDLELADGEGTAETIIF
How it was run: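 Affinity constants (Ki) came from nonlinear regression of triplicate scintillation counts after filtration separated bound from free radioligand. Compounds competed at human V1b membranes for 60 min, room temperature, in pH 7.4 tris/MgCl2/BSA buffer with 2% DMSO; 1 μM AVP defined nonspecific binding.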

Ki	Compound
10 to 100 nM	COc1ccc(S(=O)(=O)N2C(=O)C(c3cc(CN4CCN(C)CC4)ccc3OC)(N3CCCC3c3ccccn3)c3cc(Cl)ccc32)cc1 (centres unmarked) [Example 124, 5-Chloro-1-(4-methoxybenzenesulfonyl)-3-[2-methoxy-5-(4-methylpiperazin-1-ylmethyl)phenyl]-3-(2-pyridin-2-yl-pyrrolidin-1-yl)-1,3-dihydroindol-2-one]
10 to 100 nM	COc1ccc(S(=O)(=O)N2C(=O)C(c3cc(CN4CCNC(=O)C4)ccc3OC)(N3CCC[C@H]3c3ncco3)c3cc(Cl)ccc32)cc1 (stereo partly drawn) [Example 125, 5-Chloro-1-(4-methoxybenzenesulfonyl)-3-[2-methoxy-5-(3-oxopiperazin-1-ylmethyl)phenyl]-3-((S)-2-oxazol-2-yl-pyrrolidin-1-yl)-1,3-dihydroindol-2-one]
< 10 nM	COc1ccc(S(=O)(=O)N2C(=O)C(c3ccc(CN4CCN(CCO)CC4)cc3OC)(N3CCC[C@H]3c3ncco3)c3cc(Cl)ccc32)cc1 (stereo partly drawn) [Example 127, 5-Chloro-3-{4-[4-(2-hydroxyethyl)piperazin-1-ylmethyl]-2-methoxyphenyl}-1-(4-methoxybenzenesulfonyl)-3-((S)-2-oxazol-2-yl-pyrrolidin-1-yl)-1,3-dihydroindol-2-one]
10 to 100 nM	COc1ccc(S(=O)(=O)N2C(=O)C(c3cc(CNCC(F)(F)F)ccc3OC)(N3CCC[C@H]3c3ncco3)c3cc(Cl)ccc32)cc1 (stereo partly drawn) [Example 130, 5-Chloro-1-(4-methoxybenzenesulfonyl)-3-{2-methoxy-5-[(2,2,2-trifluoroethylamino)methyl]phenyl}-3-((S)-2-oxazol-2-yl-pyrrolidin-1-yl)-1,3-dihydroindol-2-one]
10 to 100 nM	CCNCc1ccc(C2(N3CCC[C@H]3c3ncco3)C(=O)N(S(=O)(=O)c3ccc(OC)cc3)c3ccc(Cl)cc32)c(OC)c1 (stereo partly drawn) [Example 131, 5-Chloro-3-(4-ethylaminomethyl-2-methoxyphenyl)-1-(4-methoxybenzenesulfonyl)-3-((S)-2-oxazol-2-yl-pyrrolidin-1-yl)-1,3-dihydroindol-2-one]
10 to 100 nM	COc1ccc(S(=O)(=O)N2C(=O)C(c3ccc(CNC(C)C)cc3OC)(N3CCC[C@H]3c3ncco3)c3cc(Cl)ccc32)cc1 (stereo partly drawn) [Example 136, 5-Chloro-3-[4-(isopropylaminomethyl)-2-methoxyphenyl]-1-(4-methoxybenzenesulfonyl)-3-((S)-2-oxazol-2-yl-pyrrolidin-1-yl)-1,3-dihydroindol-2-one]
10 to 100 nM	COc1ccc(S(=O)(=O)N2C(=O)C(c3ccc(CNCCO)cc3OC)(N3CCC[C@H]3c3ncco3)c3cc(Cl)ccc32)cc1 (stereo partly drawn) [Example 137, 5-Chloro-3-{4-[(2-hydroxyethylamino)methyl]-2-methoxyphenyl}-1-(4-methoxybenzenesulfonyl)-3-((S)-2-oxazol-2-yl-pyrrolidin-1-yl)-1,3-dihydroindol-2-one]
10 to 100 nM	COc1ccc(S(=O)(=O)N2C(=O)C(c3ccc(CN4CCNC(=O)C4)cc3OC)(N3CCC[C@H]3c3ncco3)c3cc(Cl)ccc32)cc1 (stereo partly drawn) [Example 138, 5-Chloro-1-(4-methoxybenzenesulfonyl)-3-[2-methoxy-4-(3-oxopiperazin-1-ylmethyl)phenyl]-3-((S)-2-oxazol-2-yl-pyrrolidin-1-yl)-1,3-dihydroindol-2-one]
10 to 100 nM	COc1ccc(S(=O)(=O)N2C(=O)C(c3cc(CNC(C)(C)C)ccc3OC)(N3CCC[C@H]3c3ncco3)c3cc(Cl)ccc32)cc1 (stereo partly drawn) [Example 139, 5-Chloro-3-[5-(tert-butylaminomethyl)-2-methoxyphenyl]-1-(4-methoxybenzenesulfonyl)-3-((S)-2-oxazol-2-yl-pyrrolidin-1-yl)-1,3-dihydroindol-2-one]
100 to 1000 nM	COc1ccc(CN2CCN(C)CC2)cc1C1(N2CCC[C@H]2c2ncco2)C(=O)N(S(=O)(=O)c2ccc(OC(F)(F)F)cc2)c2ccc(Cl)cc21 (stereo partly drawn) [Example 141, 5-Chloro-3-[2-methoxy-5-(4-methylpiperazin-1-ylmethyl)phenyl]-3-((S)-2-oxazol-2-yl-pyrrolidin-1-yl)-1-(4-trifluoromethoxybenzenesulfonyl)-1,3-dihydroindol-2-one]
< 10 nM	COc1ccc(S(=O)(=O)N2C(=O)C(c3cc(CN4CCN(CCO)CC4)ccc3OC)(N3CCC[C@H]3c3ncco3)c3cc(C#N)ccc32)cc1 (stereo partly drawn) [Example 142, 5-Cyano-3-{5-[4-(2-hydroxyethyl)piperazin-1-ylmethyl]-2-methoxyphenyl}-1-(4-methoxybenzenesulfonyl)-3-((S)-2-oxazol-2-yl-pyrrolidin-1-yl)-1,3-dihydroindol-2-one]

Second part, the compound before the results:

Compound	Ki
CNCc1ccc(OC)c(C2(N3CCCC3c3ccccn3)C(=O)N(S(=O)(=O)c3ccc(OC)cc3)c3ccc(Cl)cc32)c1 (centres unmarked) [Example 120, 5-Chloro-1-(4-methoxybenzenesulfonyl)-3-(2-methoxy-5-methylaminomethylphenyl)-3-(2-pyridin-2-yl-pyrrolidin-1-yl)-1,3-dihydroindol-2-one]	100 to 1000 nM
COc1ccc(S(=O)(=O)N2C(=O)C(c3cc(CN4CCNCC4)ccc3OC)(N3CCCC3c3nccs3)c3cc(Cl)ccc32)cc1 (centres unmarked) [Example 121, 5-Chloro-1-(4-methoxybenzenesulfonyl)-3-(2-methoxy-5-(piperazin-1-ylmethyl)phenyl)-3-(2-thiazol-2-yl-pyrrolidin-1-yl)-1,3-dihydroindol-2-one]	10 to 100 nM
COc1ccc(S(=O)(=O)N2C(=O)C(c3cc(CN(C)C)ccc3OC)(N3CCCC3c3ccccn3)c3cc(Cl)ccc32)cc1 (centres unmarked) [Example 122, 5-Chloro-3-(5-dimethylaminomethyl-2-methoxyphenyl)-1-(4-methoxybenzenesulfonyl)-3-(2-pyridin-2-yl-pyrrolidin-1-yl)-1,3-dihydroindol-2-one]	100 to 1000 nM
CCCNCc1ccc(OC)c(C2(N3CCCC3c3ccccn3)C(=O)N(S(=O)(=O)c3ccc(OC)cc3)c3ccc(Cl)cc32)c1 (centres unmarked) [Example 123, 5-Chloro-1-(4-methoxybenzenesulfonyl)-3-(2-methoxy-5-propylaminomethylphenyl)-3-(2-pyridin-2-yl-pyrrolidin-1-yl)-1,3-dihydroindol-2-one]	100 to 1000 nM
COc1ccc(S(=O)(=O)N2C(=O)C(c3cc(CN4CCNCC4)ccc3OC)(N3CCCC3c3ccccn3)c3cc(Cl)ccc32)cc1 (centres unmarked) [Example 126, 5-Chloro-1-(4-methoxybenzenesulfonyl)-3-(2-methoxy-5-piperazin-1-ylmethylphenyl)-3-(2-pyridin-2-yl-pyrrolidin-1-yl)-1,3-dihydroindol-2-one]	100 to 1000 nM
COc1ccc(S(=O)(=O)N2C(=O)C(N[C@@H](C)c3ncco3)(c3cc(CN4CCN(C)CC4)ccc3OC)c3cc(Cl)ccc32)cc1 (stereo partly drawn) [Example 128, 5-Chloro-1-(4-methoxybenzenesulfonyl)-3-[2-methoxy-5-(4-methylpiperazin-1-ylmethyl)phenyl]-3-((S)-1-oxazol-2-yl-ethylamino)-1,3-dihydroindol-2-one]	< 10 nM
CNCc1ccc(OC)c(C2(NCc3ncco3)C(=O)N(S(=O)(=O)c3ccc(OC)cc3)c3ccc(Cl)cc32)c1 (centres unmarked) [Example 129, 5-Chloro-1-(4-methoxybenzenesulfonyl)-3-(2-methoxy-5-methylaminomethylphenyl)-3-[(oxazol-2-ylmethyl)amino]-1,3-dihydroindol-2-one]	10 to 100 nM
CCCNCc1ccc(OC)c(C2(N3CCCC3c3nccs3)C(=O)N(S(=O)(=O)c3ccc(OC)cc3)c3ccc(Cl)cc32)c1 (centres unmarked) [Example 132, 5-Chloro-1-(4-methoxybenzenesulfonyl)-3-(2-methoxy-5-propylaminomethylphenyl)-3-(2-thiazol-2-yl-pyrrolidin-1-yl)-1,3-dihydroindol-2-one]	10 to 100 nM
COc1ccc(S(=O)(=O)N2C(=O)C(N[C@@H](C)c3ncco3)(c3cc(CN(C)C)ccc3OC)c3cc(Cl)ccc32)cc1 (stereo partly drawn) [Example 133, 5-Chloro-3-(5-dimethylaminomethyl-2-methoxyphenyl)-1-(4-methoxybenzenesulfonyl)-3-((S)-1-oxazol-2-yl-ethylamino)-1,3-dihydroindol-2-one]	10 to 100 nM
CCCNCc1ccc(OC)c(C2(N[C@@H](C)c3ncco3)C(=O)N(S(=O)(=O)c3ccc(OC)cc3)c3ccc(Cl)cc32)c1 (stereo partly drawn) [Example 134, 5-Chloro-1-(4-methoxybenzenesulfonyl)-3-(2-methoxy-5-propylaminomethylphenyl)-3-((S)-1-oxazol-2-yl-ethylamino)-1,3-dihydroindol-2-one]	10 to 100 nM
COc1ccc(S(=O)(=O)N2C(=O)C(N[C@@H](C)c3ncco3)(c3cc(CN4CCNCC4)ccc3OC)c3cc(Cl)ccc32)cc1 (stereo partly drawn) [Example 135, 5-Chloro-1-(4-methoxybenzenesulfonyl)-3-(2-methoxy-5-(piperazin-1-ylmethyl)phenyl)-3-((S)-1-oxazol-2-yl-ethylamino)-1,3-dihydroindol-2-one]	< 10 nM
COc1ccc(S(=O)(=O)N2C(=O)C(N[C@@H](C)c3ncco3)(c3cc(CNCCO)ccc3OC)c3cc(Cl)ccc32)cc1 (stereo partly drawn) [Example 140, 5-Chloro-3-{5-[(2-hydroxyethylamino)methyl]-2-methoxyphenyl}-1-(4-methoxybenzenesulfonyl)-3-((S)-1-oxazol-2-yl-ethylamino)-1,3-dihydroindol-2-one]	< 10 nM
